Laboratory results reported in the supplement of paper PMC10627819.

Legend:
Conditions in all cases: main component drawn
S. pneumoniae D39V = assay: Bliss interaction score (quartile over a dose matrix) (fitness difference); higher = more antagonism (negative = synergy)
How it was run: (§1)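 Fitness is OD595 at stationary-phase entry relative to the plate's robust no-drug mean, capped at 1. Single-drug fitness was inferred from combinations. The Bliss score is observed minus product-expected fitness, summarised by quartiles over technical, biological and donor/recipient replicates.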

S. aureus Newman [1] = assay: as above
How it was run: as §1

B. subtilis 168 [2] = assay: as above
How it was run: as §1

S. aureus DSM 20231 = assay: as above
How it was run: as §1

S. aureus Newman [3] = assay: fitness (endpoint OD595 vs no drug) (fraction); higher = more growth
How it was run: (§2)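 Volumes were 30 µl per well, or 55 µl for S. pneumoniae, in 384-well plates inoculated at OD595 0.01. Media were TSB, LB Lennox or CY at 37 °C, and OD595 was read every 30 min for 14 h with first-reading background subtraction. Fitness is the ratio of optical density at stationary-phase entry to the robust mean of no-drug controls. That ratio is capped at 1.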

B. subtilis 168 [4] = assay: as above
How it was run: as §2
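Throughout, for Bliss interaction score (quartile over a dose matrix): first quartile when negative (synergy) and third quartile when positive (antagonism).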

CC[C@H](C)[C@H](N)C1=N[C@H](C(=O)N[C@@H](CC(C)C)C(=O)N[C@H](CCC(=O)O)C(=O)N[C@H](C(=O)N[C@H]2CCCCNC(=O)[C@H](CC(N)=O)NC(=O)[C@@H](CC(=O)O)NC(=O)[C@H](Cc3cnc[nH]3)NC(=O)[C@@H](Cc3ccccc3)NC(=O)[C@H]([C@@H](C)CC)NC(=O)[C@@H](CCCN)NC2=O)[C@@H](C)CC)CS1 [Bacitracin] + Cc1cc(NS(=O)(=O)c2ccc(N)cc2)no1 [Sulfamethoxazol]
Conditions	Bliss interaction score
B. subtilis 168 [2]	0.0966
S. aureus DSM 20231	-0.0266
S. aureus Newman [1]	0.104
S. pneumoniae D39V	0.0767

fitness
Conditions	partner 1 µg/mL	partner 2 µg/mL	partner 4 µg/mL
B. subtilis 168 [4], first compound 37.5 µg/mL	0.856	0.855	0.941
B. subtilis 168 [4], first compound 75 µg/mL	0.832	0.851	0.852
S. aureus Newman [3], first compound 18.75 µg/mL	0.775	0.76	0.819
S. aureus Newman [3], first compound 75 µg/mL	0.0141	0.009	0.0028

fitness, one replicate
Conditions	first compound 18.75 µg/mL	first compound 37.5 µg/mL	first compound 75 µg/mL	first compound 150 µg/mL
B. subtilis 168 [4], partner 0.5 µg/mL	–	0.947	0.998	≥ 1
S. aureus Newman [3], partner 8 µg/mL	0.729	0.454	0.0253	–

CC[C@H](C)[C@H](N)C1=N[C@H](C(=O)N[C@@H](CC(C)C)C(=O)N[C@H](CCC(=O)O)C(=O)N[C@H](C(=O)N[C@H]2CCCCNC(=O)[C@H](CC(N)=O)NC(=O)[C@@H](CC(=O)O)NC(=O)[C@H](Cc3cnc[nH]3)NC(=O)[C@@H](Cc3ccccc3)NC(=O)[C@H]([C@@H](C)CC)NC(=O)[C@@H](CCCN)NC2=O)[C@@H](C)CC)CS1 [Bacitracin] + C[n+]1ccc(-c2cc[n+](C)cc2)cc1 [Paraquat]
Conditions	Bliss interaction score
B. subtilis 168 [2]	0.115
S. aureus DSM 20231	-0.0542
S. aureus Newman [1]	0.0836
S. pneumoniae D39V	0.0921

fitness
Conditions	first compound 18.75 µg/mL	first compound 37.5 µg/mL	first compound 75 µg/mL	first compound 150 µg/mL
B. subtilis 168 [4], partner 1.25 µg/mL	–	0.931	0.924	0.844
B. subtilis 168 [4], partner 2.5 µg/mL	–	0.886	0.846	0.826
B. subtilis 168 [4], partner 5 µg/mL	–	0.746	0.656	–
S. aureus Newman [3], partner 1.25 µg/mL	0.673	0.276	0.0637	–
S. aureus Newman [3], partner 2.5 µg/mL	0.725	0.315	0.0696	–
S. aureus Newman [3], partner 5 µg/mL	0.669	0.349	0.0708	–

CC[C@H](C)[C@H](N)C1=N[C@H](C(=O)N[C@@H](CC(C)C)C(=O)N[C@H](CCC(=O)O)C(=O)N[C@H](C(=O)N[C@H]2CCCCNC(=O)[C@H](CC(N)=O)NC(=O)[C@@H](CC(=O)O)NC(=O)[C@H](Cc3cnc[nH]3)NC(=O)[C@@H](Cc3ccccc3)NC(=O)[C@H]([C@@H](C)CC)NC(=O)[C@@H](CCCN)NC2=O)[C@@H](C)CC)CS1 [Bacitracin] + O=C(O[C@@H]1Cc2c(O)cc(O)cc2O[C@@H]1c1cc(O)c(O)c(O)c1)c1cc(O)c(O)c(O)c1 [EGCG]
Conditions	Bliss interaction score
B. subtilis 168 [2]	0.0767
S. aureus DSM 20231	-0.0223
S. aureus Newman [1]	0.124
S. pneumoniae D39V	-0.0707

fitness
Conditions	first compound 18.75 µg/mL	first compound 37.5 µg/mL	first compound 75 µg/mL	first compound 150 µg/mL
B. subtilis 168 [4], partner 6.25 µg/mL	–	0.876	0.885	0.827
B. subtilis 168 [4], partner 12.5 µg/mL	–	–	–	0.562
S. aureus Newman [3], partner 12.5 µg/mL	0.73	0.43	0.0108	–
S. aureus Newman [3], partner 25 µg/mL	0.632	0.283	0.0073	–
S. aureus Newman [3], partner 50 µg/mL	0.444	0.192	0.0184	–
